Data set [1] has as its system PER1, BMAL1, CRY1, CLOCK, MT1 and MT2. The experiment in a line: Expression of clock genes and MT1/MT2 in cholangiocytes from treated rats (real-time PCR, FACS). It is filed as in vivo, rat. How it is done:
Male 344 Fischer rats (150-175 g) were purchased from Charles River (Wilmington, Mass.) and kept in a temperature-controlled environment (22° C.) with 12:12 hr light/dark cycles. Animals were fed ad libitum and had free access to food and drinking water. […] Before each surgical procedure, animals were anesthetized with sodium pentobarbital (50 mg/kg BW, IP). All animal experiments were performed in accordance with a protocol approved by the Scott and White and Texas A&M Health Science Center Institutional Animal Care and Use Committee and conform to the Guide for the Care and Use of Laboratory Animals published by the US National Institutes of Health (NIH Publication No. 85-23, revised 1996). In all animals, wet liver weight, body weight, wet liver weight to body weight ratio, and an index of liver cell growth including cholangiocytes were measured ([…] et al., 1988). […] FACS analysis was performed as described (Onori et al., 2010) using a C6 flow cytometer and analyzed by CFlow Software (Accuri Cytometers Inc. Ann Arbor, Mich.). […] The relative quantity of the selected protein (mean selected protein fluorescence) was expressed as mean FL1-A (samples)/mean FL-1A (secondary antibodies only). […] Data were expressed as relative mRNA levels ±SEM of the selected gene to glyceraldehyde-3-phosphate dehydrogenase (GAPDH) ratio.
(In general: In qPCR the cycle at which signal appears reflects the starting amount.)

Data set [2] can be described thus: Melatonin serum levels by ELISA in normal and BDL rats. It is filed as in vivo. Conditions: male, Fischer 344, rat, oral, 20 mg/L in drinking water, tap water containing melatonin (20 mg/L) for 1 week. (In an ELISA, binding on a coated surface is turned into a signal by an enzyme label.)
Protocol: Male 344 Fischer rats (150-175 g) were purchased from Charles River (Wilmington, Mass.) and kept in a temperature-controlled environment (22° C.) with 12:12 hr light/dark cycles. Animals were fed ad libitum and had free access to food and drinking water. The studies were performed in normal rats, and in rats that immediately after bile duct ligation (BDL, for collection of serum, liver tissues and cells) (Alpini et al., 1988) or bile duct incannulation (BDI, for bile collection) (Alpini et al., 1988) had ad libitum access to tap water or tap water containing melatonin (20 mg/L in drinking water that corresponds to approximately an intake of melatonin of 2 mg/g BW per day per rat) (Anisimov et al., 2003) for 1 week. Before each surgical procedure, animals were anesthetized with sodium pentobarbital (50 mg/kg BW, IP).
Melatonin serum levels were measured by commercially available ELISA kits according to the instructions provided by the vendor (Genway, San Diego, Calif.).
Data set [3] deals with miR-141. Nature of the data set: miRNA microarray expression profiling in BDL rat liver. Conditions: reduced in BDL; after melatonin treatment in vivo. The source says: Background: microRNAs (miRNAs) are small non-coding RNAs that have been implicated in the pathology of cholestatic liver injuries. After bile duct ligation (BDL), there is enhanced biliary proliferation and intrahepatic bile duct mass (IBDM). The inventors have previously shown that: i) cholangiocytes produce melatonin and express Clock genes and that ii) melatonin inhibits in vitro and in vivo the growth of cholangiocytes and cholangiocarcinoma cell lines by modulation of the CLOCK genes. Thus, in certain aspects miRNA regulates the expression of CLOCK genes and subsequently alters the proliferation of cholangiocytes after BDL. Methods: miRNA expression in normal and BDL rat liver was evaluated using hybridization based microRNA microarray. Mouse cholangiocytes (NMCs) were used for the experiments in vitro. mRNA expression was quantitated by real-time PCR analysis and protein expression was detected by Western blot. Results: […] Bioinformatics and dual-luciferase reporter assays identified Clock and cryptochrome 1 (Cry1), a blue light-dependent regulator of the circadian feedback loop, as the direct targets of miR-141. […] Targeting of […] during cholestatic liver injuries provides an important therapeutic strategy in the regulation of cholangiocytes proliferation through the regulation of Clock and Cry 1 expression.

Data set [4] has as its system PER1, BMAL1, CRY1, CLOCK, MT1 and MT2. The experiment in a line: FACS analysis of clock proteins and MT1/MT2 in large mouse cholangiocyte lines. Conditions: in vitro melatonin vs. basal value. Format: cell-based. How it is done: (i) in paraffin-embedded liver sections ([…]) from normal and BDL control rats by immunohistochemistry ([…] al., 2009); and (ii) in total RNA (1 μg, by real-time PCR) (Francis et al., 2008) from purified cholangiocytes. […] FACS analysis was performed as described (Onori et al., 2010) using a C6 flow cytometer and analyzed by CFlow Software (Accuri Cytometers Inc. Ann Arbor, Mich.). At least 10,000 events in the light-scatter (SSC/FSC) were acquired. The expression of the selected protein was identified and gated on FL1-A/Count plots. The relative quantity of the selected protein (mean selected protein fluorescence) was expressed as mean FL1-A (samples)/mean FL-1A (secondary antibodies only).
(In general: A flow cytometer gives signals particle by particle.)

The conditions of data set [5]: rat, in vivo, 1 mg/kg/day. How it is done:
In separate experiments, normal rats treated with Vivo-Morpholino sequences of AANAT (5′-[…] (SEQ ID NO:1), to reduce the biliary expression of AANAT) or Morpholino mismatched (5′-[…] (SEQ ID NO:2)) (Gene Tools LCC) (1 mg/Kg BW/day) for 1 week via an implanted portal vein catheter. Serum, liver tissue, cholangiocytes, kidney, spleen, small intestine, stomach and heart were collected. Since our goal was to knock-down AANAT expression in the liver without inhibiting AANAT expression in other organs, we used a lower dose (1 mg/Kg/day) of Vivo-Morpholino than that described in the original study (3.0 mg/kg/day (Arora et al., 2002). This approach minimizes the amount of Vivo-Morpholino that circulates outside of the liver after slow infusion into the portal vein. See below for the surgical procedure for the implantation of the portal vein catheter by which AANAT Vivo-Morpholino or Morpholino mismatched was administered.
Biliary proliferation was determined by measurement of the percentage of PCNA-positive cholangiocytes by immunohistochemistry, and intrahepatic bile duct mass (IBDM) by immunohistochemistry for CK-19 (Mancinelli et al., 2010). Biliary apoptosis was evaluated by semiquantitative terminal deoxynucleotidyltransferase biotin-dUTP nick-end labeling (TUNEL) kit (Chemicon International, Inc., Temecula, Calif.) (Mancinelli et al., 2010). IBDM was determined as the area occupied by CK-19 positive-bile duct/total area×100 (Mancinelli et al., 2010). The morphological changes/damage in liver, spleen, kidney, heart, stomach, and small intestine were evaluated from AANAT Vivo-Morpholino- or mismatch-treated rats by H&E staining. The serum levels of the transaminases, glutamate pyruvate transaminases (SGPT) and glutamic oxaloacetic transaminase (SGOT), alkaline phosphatase (ALP) and total bilirubin were evaluated using a Dimension RxL Max Integrated Chemistry system (Dade Behring Inc., Deerfield Ill.), Chemistry Department, Scott & White.

`COc1ccc2[nH]cc(CCNC(C)=O)c2c1` [melatonin]: the “Expression of MT1 and MT2 in cholangiocytes” value in data set [1] (BDL rats treated in vivo vs. regular tap water) is reported as “decreased”. Besides, in data set [1] (normal and BDL rats treated in vivo vs. control cholangiocytes), the “Expression of PER1, BMAL1, CRY1 and CLOCK in cholangiocytes” value was “decreased”. In addition, the concentration at 1 week was determined as 0.165 ± 0.0668 ng/mL in data set [2] (BDL rats) and 0.14 ± 0.0127 ng/mL in data set [2] (normal rats). For the same compound, the “miR-141 expression in BDL rat liver” value in data set [3] was “recovered”. Also, in data set [4], the “Expression of MT1 and MT2 (FACS)” value is “decreased”. The “Expression of PER1, BMAL1, CRY1 and CLOCK (FACS)” value in data set [4] was “decreased”.
Turning to “AANAT Vivo-Morpholino: Vivo-Morpholino sequence of AANAT 5′-GTTCCCCAGCTTTGGAAGTGGTCCC (SEQ ID NO:1), to reduce the biliary expression of AANAT (all phosphorodiamidate morpholino (PMO); Vivo-Morpholino delivery moiety attached, position not given here, further chemistry not fully specified)”, in data set [5], the ALP worked out at 230.2 ± 5.2 Units/L, the SGOT came out at 148.5 ± 22.5 Units/L, the SGPT turned out to be 72.25 ± 0.2 Units/L and the Total bilirubin is reported as less than 0.1 mg/L.

Source of the values: patent publication US9468670B2, “Melatonin-based treatment and diagnosis of bile duct disease” (Texas A&M University System, priority 2011, dated 2016).
